This is an account of results in US20040018220A1, “Aqueous compositions for facial cosmetics” (Chiou Consulting, Inc., priority 2002, published 2004).

In this assay the test system is facial skin. In words: Single application of glycerin U.S.P. and other strengths of aqueous glycerin solutions and gels (Example IV). In kind it is in vivo, human.

Each structure is given as a SMILES string.

As to `OCC(O)CO` [Glycerin U.S.P., glycerin], where the note is “applied to a wetted facial surface”, the feeling on application entry was “better feeling (reduced stickiness)”. For the same compound, the “shiny, moist, softening and dewy effects” value (single application, one human subject) is “results similar to those described in Example I”.
